For 31 compounds, IC50 results are on record in patent US20170326125A1, “MULTISUBSTITUTED AROMATIC COMPOUNDS AS INHIBITORS OF THROMBIN” (VERSEON CORPORATION, priority 2016, published 2017).

Each structure is given as a SMILES string. pIC50: −log10 of the molar value. Bounds are passed on as bounds.

In the experiment the target is T1, Human thrombin (Homo sapiens, UniProt P00734).
T1 construct: purchased Haematologic Technologies Inc
In words: Inhibition of the protease activity of thrombin (chromogenic substrate S-2238). It counts as biochemical. The following applies: inhibition of the protease activity of thrombin; class symbols a/b/c.

`CC(C)(C)C(=O)n1nc(-c2cccs2)nc1NCc1ccccc1` [Cmpd 152, 1-[5-(benzylamino)-3-(thiophen-2-yl)-1H-1,2,4-triazol-1-yl]-2,2-dimethylpropan-1-one] gave a pIC50 of more than 7.00.
Compound `CCC(=O)n1nc(-c2cccnc2)nc1SC` [Cmpd 153, 1-[5-(methylsulfanyl)-3-(pyridin-3-yl)-1H-1,2,4-triazol-1-yl]propan-1-one] had a pIC50 of less than 6.00.
As for `CCC(=O)n1nc(-c2cccs2)nc1SC` [Cmpd 154, 1-[5-(methylsulfanyl)-3-(thiophen-2-yl)-1H-1,2,4-triazol-1-yl]propan-1-one], the figure is less than 6.00.
Under `CCC(=O)n1nc(-c2cccnc2)nc1N` [Cmpd 155, 1-[5-amino-3-(pyridin-3-yl)-1H-1,2,4-triazol-1-yl]propan-1-one] stands less than 6.00; under `COc1ccc(CNc2nc(-c3ccccn3)nn2C(=O)c2ccccc2)cc1` [Cmpd 157, 1-benzoyl-N-[(4-methoxyphenyl)methyl]-3-(pyridin-2-yl)-1H-1,2,4-triazol-5-amine], 6.00 to 7.00; under `COc1ccc(CNc2nc(-c3ccncc3)nn2C(=O)c2ccccc2)cc1` [Cmpd 158, 1-benzoyl-N-[(4-methoxyphenyl)methyl]-3-(pyridin-4-yl)-1H-1,2,4-triazol-5-amine], less than 6.00.
Turning to `O=C(c1ccccc1)n1nc(-c2ccccn2)nc1NCc1ccccc1` [Cmpd 159, 1-benzoyl-N-benzyl-3-(pyridin-2-yl)-1H-1,2,4-triazol-5-amine], the pIC50 is more than 7.00.
Turning to `O=C(c1ccccc1)n1nc(-c2ccncc2)nc1NCc1ccccc1` [Cmpd 160, 1-benzoyl-N-benzyl-3-(pyridin-4-yl)-1H-1,2,4-triazol-5-amine], the pIC50 was more than 7.00.
The compound `Fc1ccc(CNc2nc(-c3ccccn3)n(Cc3ccccc3)n2)cc1` [Cmpd 162, 1-benzyl-N-[(4-fluorophenyl)methyl]-5-(pyridin-2-yl)-1H-1,2,4-triazol-3-amine] gave a pIC50 of less than 6.00.
Under `CC(O)c1cc(-c2ccccn2)nn1CCc1ccc(F)cc1` (stereo not shown) [Cmpd 163, 1-1-[2-(4-fluorophenyl)ethyl]-3-(pyridin-2-yl)-1H-pyrazol-5-ylethan-1-ol] stands less than 6.00; under `CC(=O)c1cc(-c2ccccn2)nn1CCc1ccc(F)cc1` [Cmpd 164, 1-1-[2-(4-fluorophenyl)ethyl]-3-(pyridin-2-yl)-1H-pyrazol-5-ylethan-1-one], less than 6.00.
As for `CC(C)(C)C(=O)n1nc(-c2ccccn2)cc1NCc1ccoc1` [Cmpd 166, 1-5-[(furan-3-ylmethyl)amino]-3-(pyridin-2-yl)-1H-pyrazol-1-yl-2,2-dimethylpropan-1-one], the figure is 6.00 to 7.00; as for `CC(C)(C)C(=O)Nc1nc(C(=O)N2CCOCC2)n[nH]1` [Cmpd 169, 2,2-dimethyl-N-3-[(morpholin-4-yl)carbonyl]-1H-1,2,4-triazol-5-ylpropanamide], less than 6.00; as for `O=C(Nc1nc(C(=O)N2CCOCC2)n[nH]1)c1ccccc1Cl` [Cmpd 170, 2-chloro-N-3-[(morpholin-4-yl)carbonyl]-1H-1,2,4-triazol-5-ylbenzamide], less than 6.00.
Under `O=C(Nc1nc(C(=O)N2CCCC2)n[nH]1)c1ccccc1Cl` [Cmpd 171, 2-chloro-N-3-[(pyrrolidin-1-yl)carbonyl]-1H-1,2,4-triazol-5-ylbenzamide] stands less than 6.00; under `O=C(Oc1ccccc1Cl)n1nc(-c2cccnc2)nc1NCc1ccc(F)cc1` [Cmpd 172, 2-chlorophenyl 5-[(4-fluorophenyl)methyl]amino-3-(pyridin-3-yl)-1H-1,2,4-triazole-1-carboxylate], less than 6.00; under `O=C(Oc1ccccc1F)n1nc(-c2cccnc2)nc1NCc1ccc(F)cc1` [Cmpd 173, 2-fluorophenyl 5-[(4-fluorophenyl)methyl]amino-3-(pyridin-3-yl)-1H-1,2,4-triazole-1-carboxylate], less than 6.00.
Take `CC(=O)Oc1ccccc1C(=O)n1nc(-c2ccccn2)nc1NCc1ccccc1` [Cmpd 177, 2-[5-(benzylamino)-3-(pyridin-2-yl)-1H-1,2,4-triazol-1-yl]carbonylphenyl acetate]: the pIC50 is more than 7.00.
Take `c1cncc(-c2n[nH]c(NCc3cccs3)n2)c1` [Cmpd 178, 3-(pyridin-3-yl)-N-(thiophen-2-ylmethyl)-1H-1,2,4-triazol-5-amine]: the pIC50 was less than 6.00.
Under `CCC(=O)n1nc(-c2cccnc2)nc1NCc1cccc(C#N)c1` [Cmpd 179, 3-([1-propanoyl-3-(pyridin-3-yl)-1H-1,2,4-triazol-5-yl]aminomethyl)benzonitrile] stands less than 6.00.
As for `CSc1nc(-c2cccnc2)nn1C(=O)c1ccccc1Cl` [Cmpd 180, 3-1-[(2-chlorophenyl)carbonyl]-5-(methylsulfanyl)-1H-1,2,4-triazol-3-ylpyridine], the figure is more than 7.00.
`O=C(c1ccccc1Cl)n1nc(-c2cccnc2)nc1SCc1ccc(F)cc1` [Cmpd 181, 3-1-[(2-chlorophenyl)carbonyl]-5-[(4-fluorophenyl)methyl]sulfanyl-1H-1,2,4-triazol-3-ylpyridine] gave a negative logarithm of the IC50 (pIC50) of 6.00 to 7.00.
`COc1ccccc1C(=O)n1nc(-c2cccnc2)nc1SC` [Cmpd 182, 3-1-[(2-methoxyphenyl)carbonyl]-5-(methylsulfanyl)-1H-1,2,4-triazol-3-ylpyridine]: the pIC50 was more than 7.00.
Turning to `O=C(Nc1ccccc1)c1cn(-c2ccccn2)nc1NCc1ccc(F)cc1` [Cmpd 183, 3-[(4-fluorophenyl)methyl]amino-N-phenyl-1-(pyridin-2-yl)-1H-pyrazole-4-carboxamide], the pIC50 was less than 6.00.
Under `O=C(Nc1nc(C(=O)N2CCOCC2)n[nH]1)c1ccc(Cl)cc1` [Cmpd 184, 4-chloro-N-3-[(morpholin-4-yl)carbonyl]-1H-1,2,4-triazol-5-ylbenzamide] stands less than 6.00; under `Cc1ccc(C(=O)Nc2nc(C(=O)N3CCOCC3)n[nH]2)cc1` [Cmpd 185, 4-methyl-N-3-[(morpholin-4-yl)carbonyl]-1H-1,2,4-triazol-5-ylbenzamide], less than 6.00.
The compound `CN(C)C(=O)c1n[nH]c(C(=O)Nc2ccccc2Cl)n1` [Cmpd 186, 5-C-(2-chlorobenzene)-3-N,3-N-dimethyl-1H-1,2,4-triazole-3,5-dicarboxamide] showed a pIC50 of less than 6.00.
As for `CNC(=O)c1n[nH]c(C(=O)Nc2ccccc2Cl)n1` [Cmpd 187, 5-C-(2-chlorobenzene)-3-N-methyl-1H-1,2,4-triazole-3,5-dicarboxamide], the figure is less than 6.00.
Under `CN(C)C(=O)n1nc(-c2cccnc2)nc1NCc1ccc(F)cc1` [Cmpd 188, 5-[(4-fluorophenyl)methyl]amino-N,N-dimethyl-3-(pyridin-3-yl)-1H-1,2,4-triazole-1-carboxamide] stands less than 6.00; under `CC(C)NC(=O)n1nc(-c2cccnc2)nc1NCc1ccc(F)cc1` [Cmpd 190, 5-[(4-fluorophenyl)methyl]amino-N-(propan-2-yl)-3-(pyridin-3-yl)-1H-1,2,4-triazole-1-carboxamide], less than 6.00.
`O=C(Nc1ccccc1)n1nc(-c2cccnc2)nc1NCc1ccc(F)cc1` [Cmpd 191, 5-[(4-fluorophenyl)methyl]amino-N-phenyl-3-(pyridin-3-yl)-1H-1,2,4-triazole-1-carboxamide] gave a pIC50 of less than 6.00.

A word on the pIC50: it is the IC50 on a negative log10 scale, so that one unit is a factor of ten. Low values mean a high IC50, high ones a low IC50.
